Test results from US8999983B2, “Modulators of Hec1 activity and methods therefor” (Taivex Therapeutics Corporation, priority 2011, dated 2015).

How the values were obtained:
[1] = tested on: Caco-2 cell monolayers; assay: Caco-2 cell permeability; format: in vitro ADME; conditions: 2 hour
Protocol: Here, Caco-2 cell line (cat. HTB-37TM) was purchased from the ATCC. Cells were cultivated in T-75 flasks in a cell culture incubator set at 37° C., 5% CO2, 95% relative humidity. Cells were allowed to grow to reach 80-90% confluence before seeding. […] The cells were grown in culture medium consisting of Dulbecco's modified Eagle's medium supplemented with 10% fetal bovine serum, 100 U/mL penicillin and 100 μg/mL streptomycin. The culture medium was replaced every 2 days and the cells were maintained at 37° C., 95% relative humidity and 5% CO2.
For a quality integrity control of the monolayers of seeded cells, the Lucifer yellow (LY) transport experiment was performed to evaluate monolayer integrity. As for a quality control of each filter, the transepithelial electrical resistance (TEER) was measured before the start of and at the end of transport experiments. Physiologically and morphologically well developed Caco-2 cell monolayers with TEER values greater than 400 Ωcm^2 were used for the studies.
The solution volumes in apical and basolateral chambers were set to 0.4 and 0.6 ml respectively. Samples were taken from both the apical and basolateral compartment at the end of the 2 hour incubation at 37° C. […] The excitation and emission wavelengths were 490 nm and 530 nm, respectively.

[2] = Body weight in mouse xenograft studies; format: in vivo, nude mice
Protocol: (§1) Mouse Xenograft Studies: Xenograft studies adapted from a previous published protocol (Wu et al, Cancer Res. 2008 Oct. 15; 68(20):8393-9). Female BALB/c nude (nu/nu) mice (5-8 weeks) were obtained from Lasco (Industrial Park, Tai-Ping Area, Taichung City, Taiwan). The animals were maintained under specific pathogen-free conditions, and food and water were supplied ad libitum. Housing and all procedures involving animals were performed according to protocols approved by the IACUC in DCB. Nude mice were inoculated with 17-β-estradiol pellets 72 to 96 h before implantation of BT-474 cells. For subcutaneous implantation of BT-474 cells, cells (1×10^7 in matrix gel/animal) were injected subcutaneously into the right subaxillary region. Treatment started when average tumor volume reached about 200 mm^3; mice were treated (p.o., QD/28 cycles in total) with vehicle A (0.5% methylcellulose), or candidate compounds formulated in vehicle A (10-50 mg/kg body weight). Perpendicular diameter measurement of each tumor were made with digital calipers and the volume of the tumor calculated using formula (L×W×W)/2, in which L and W represent the length and the width, respectively. Body weights were measured three times weekly.
(§2) The in vivo effectiveness of contemplated compounds in the reduction of tumor volume in nude mice is readily apparent.
(§3) Development of resistance to treatment in advanced stage tumors is a well known phenomenon. Activity of select Hec1 inhibitor in such late stage tumors was determined by re-dosing of BT474 xenografted animals that had previously subjected to 35 days of treatment with 110095 (compound 27 of Table 1). Re-treatment with 110095 was starting on day 42 and continued for 21 days.

[3] = tested on: HeLa cell; assay: Immunostaining and microscopy, metaphase chromosomal misalignment; format: cell-based; conditions: compared to control (DMSO)
Protocol: Immunostaining and Microscopy: Cells were grown on polylysine-coated coverslips. Cells were gently washed with BRB80 buffer (80 mM piperazine-N,N′-bis(2-ethanesulfonic acid) (PIPES) pH 6.8, 5 mM EGTA, 1 mM MgCl2) before fixation with cold 100% methanol or 4% paraformaldehyde in BRB80 or phosphate-buffered saline (PBS). Following permeabilization with 0.4% Triton X-100, cells were blocked with 2% bovine serum albumin (BSA) in PBS and then incubated with anti-α-Tubulin antibodies (mouse, FITC Conjugate; Sigma Aldrich, St. Louis Mo. USA) diluted in 2% BSA in PBS. DAPI (4′,6′-diamidino-2-phenylindole) staining was applied after secondary antibody incubation, and cells were mounted on cover slides with Prolong gold antifade reagent (Life Technologies, Carlsbad Calif. USA 92008). Images were captured with a Zeiss Axioplan 2 microscope equipped with a deconvolution module or with a Zeiss LSM-510 META laser scanning confocal microscope (Carl Zeiss Microscopy, Thomwood N.Y. 10594 USA).
After fixation, cells are stained with anti-tubulin antibody and DAPI to stain for microtubules and DNA, respectively, and imaged. […] Fluorescent images were taken of the cells and the percentage of cells with metaphase misalignment were counted and recorded.

[4] = tested on: cancer cells; assay: DNA content analysis (propidium iodide, FACS); format: cell-based
Protocol: DNA Content Analysis: Cells were plated in a 10-cm culture plate and cultured overnight. Cells were incubated with the compound for the indicated time and collected at the indicated time points. Cells were fixed with 70% ethanol overnight, stained with propidium iodide solution (1.25 mg/ml propidium iodide (Sigma) and 20 μl/ml […] in PBS) and subjected to fluorescence activated cell sorting (FACS). The results were analyzed by Cell Quest software (BD Biosciences, San Jose Calif. 95131 USA).

[5] = tested on: Huh-7 xenograft; assay: Mouse xenograft study, Huh-7 liver cancer; format: in vivo; conditions: Huh-7 liver cancer xenograft, nude mice
[6] = tested on: BT474 xenograft; assay: Mouse xenograft study, BT474 breast cancer; format: in vivo, nude mice
Protocol: as §1, §2, §3

[7] = tested on: MDA-MB-231 xenograft; assay: Mouse xenograft study, MDA-MB-231 breast cancer; format: in vivo; conditions: MDA-MB-231 breast cancer xenograft, nude mice
[8] = tested on: Nek2 protein; assay: Immunoblot of Nek2 protein level in K562 cells; format: cell-based; conditions: 1 μM, up to 24 hrs
Protocol: Immunoblot Analysis: For immunoblotting experiments, cells were plated in a 6-well culture plate and cultured overnight. Cells were incubated with the test compounds for the indicated time and whole cell lysate was harvested by adding 1×SDS-PAGE Sample Buffer (62.5 mM Tris-HCl (pH 6.8 at 25° C.), 2% w/v SDS, 10% glycerol, 50 mM DTT, and 0.01% w/v bromophenol blue or phenol red). Proteins were separated by SDS-PAGE electrophoresis and transferred to PVDF membrane. Protein expression was immunoblotted using various primary antibodies and detected using Immobilon Western Chemiluminescent HRP Substrate (Millipore, Billerica Mass. 01821 USA). Antibodies used include anti-Cleaved Caspase3, (Rabbit, Cell Signaling Technology, Danvers Mass. 01923 USA); anti-PARP (Rabbit, Cell Signaling Technology, Danvers Mass. 01923 USA); anti-MCL-1 (mouse, BD Biosciences, San Jose Calif. 95131 USA); anti-XIAP (rabbit, Cell Signaling Technology, Danvers Mass. 01923 USA); anti-Bcl-2 (mouse, Santa Cruz Biotechnology, Santa Cruz Calif. 95060); anti-Cyclin BI (mouse, BD Biosciences, San Jose Calif. 95131 USA); anti-Cyclin D1 (mouse, Santa Cruz Biotechnology, Santa Cruz Calif. 95060); Anti-Nek2 (mouse, BD Biosciences, San Jose Calif. 95131 USA); Anti-HEC1, (rabbit, GeneTex, Inc., Irvine Calif. 92606 USA); and anti-actin (mouse, Millipore, Billerica Mass. 01821 USA). […]

Caco-2 permeability ([1]; 10 μM, both directions): moderate Caco-2 permeability
SMILES: COCCOc1cnc(Sc2cc(C)c(-c3csc(NC(=O)c4ccncc4)n3)c(C)c2)cn1 [Compound 27, N-(4-{4-(5-(2-methoxyethoxy)pyrazin-2-ylthio)-2,6-dimethylphenyl}thiazol-2-yl)isonicotinamide]
active efflux ([1]; Caco-2, 10 μM): no indication of significant active efflux
body weight ([2]; re-treatment of late stage xenografts): body weight remained constant
body weight ([2]; xenograft studies FIG. 7A-7D, nude mice): body weight remained constant
number of cells with metaphase misalignment [3]: time-dependent increase in the number of cells with metaphase misalignment
sub-G1 population (apoptotic cells) [4]: increase in the sub-G1 population
xenograft tumor outgrowth [5]: inhibition of xenograft tumor outgrowth
xenograft tumor outgrowth ([6]; BT474 breast cancer xenograft, nude mice): inhibition of xenograft tumor outgrowth
activity in late stage tumors on re-treatment ([6]; BT474 xenografted animals after 35 days of treatment, re-treatment from day 42 for 21 days): remained effective with late stage tumors
xenograft tumor outgrowth [7]: inhibition of xenograft tumor outgrowth
Nek2 protein level [8]: induced a reduction of Nek2 protein levels
